The values below come from ChEMBL document CHEMBL1152359, “Synthesis and structure-activity relationships of gamma-carboline derivatives as potent and selective cysLT(1) antagonists” (Bioorg Med Chem Lett, 2009).

A short description of the data set: in vivo. The conditions noted are these: rat.

As usually defined, the bioavailability is dose-corrected exposure relative to a reference, in per cent. Consider `COc1cc(C(=O)NS(=O)(=O)c2ccccc2C)ccc1Cc1cn(C)c2ccc(NC(=O)OC3CCCC3)cc12` [ZAFIRLUKAST], for which the bioavailability was 25%.

Molecule `CC(C)(O)c1ccccc1CC[C@@H](SCC1(CC(=O)O)CC1)c1cccc(/C=C/c2ccc3ccc(Cl)cc3n2)c1` [MONTELUKAST] came in with a bioavailability of 63%.
